According to patent US7595409B2, “3,4-diamino-3-cyclobutene-1,2-dione derivatives as potassium channel openers” (Janssen Pharmaceutica N.V., priority 2006, dated 2009):

Target: T1, KATP channels (Homo sapiens, UniProt O60706)
T1 construct: TE671 human medulloblastoma cells were obtained from ATCC; host or cells: TE671 human medulloblastoma cells
Experiment: Potassium Channel Assay (FLIPR membrane potential, TE671 cells)
Assay type: cell-based
Details: 30 μM test compound; TE671 human medulloblastoma cells; FLIPR Membrane Potential Assay Dye; room temperature
Experimental: TE671 human medulloblastoma cells were obtained from ATCC and grown in Dulbecco's modified Eagle's medium (DMEM) supplemented with 10% fetal bovine serum, 100 U/ml penicillin and 100 U/ml streptomycine.
The day before testing, the cells were plated in black 96-well plates at 50 K/well. On the day of testing, the growth media was removed, then 100 μl of FLIPR buffer (20 mM 4-(2-hydroxyethyl)-1-piperizine ethane sulfonic acid (HEPES), 120 mM NaCl, 2 mM KCl, 2 mM CaCl2, 1 mM MgCl2, 5 mM Glucose) and 100 μl of Membrane Potential Assay Dye (Molecular Devices) dissolved in FLIPR buffer were added to each well. The cells were incubated at room temperature for 15 to 30 min.
The effect of test compounds on KATP channels were evaluated on a fluorometric imaging plate reader (FLIPR, Molecular Devices) at room temperature. After a baseline period, 50 μl of 5× stock solution of test compound prepared in FLIPR buffer was added and fluorescent change was monitored for 3 minutes. After this reading, glyburide, a KATP channel blocker, was added to a final concentration of 5 μM to check the specificity of the test compound as a KATP channel openers. Hyperpolarization resulting from KATP channel opening was observed as a decrease in fluorescent intensity.
Representative compounds of the present invention were tested according to the procedure described above, with results as listed in Table 2 below.

T1 sequence (O60706 1-1549 isoform O60706-2): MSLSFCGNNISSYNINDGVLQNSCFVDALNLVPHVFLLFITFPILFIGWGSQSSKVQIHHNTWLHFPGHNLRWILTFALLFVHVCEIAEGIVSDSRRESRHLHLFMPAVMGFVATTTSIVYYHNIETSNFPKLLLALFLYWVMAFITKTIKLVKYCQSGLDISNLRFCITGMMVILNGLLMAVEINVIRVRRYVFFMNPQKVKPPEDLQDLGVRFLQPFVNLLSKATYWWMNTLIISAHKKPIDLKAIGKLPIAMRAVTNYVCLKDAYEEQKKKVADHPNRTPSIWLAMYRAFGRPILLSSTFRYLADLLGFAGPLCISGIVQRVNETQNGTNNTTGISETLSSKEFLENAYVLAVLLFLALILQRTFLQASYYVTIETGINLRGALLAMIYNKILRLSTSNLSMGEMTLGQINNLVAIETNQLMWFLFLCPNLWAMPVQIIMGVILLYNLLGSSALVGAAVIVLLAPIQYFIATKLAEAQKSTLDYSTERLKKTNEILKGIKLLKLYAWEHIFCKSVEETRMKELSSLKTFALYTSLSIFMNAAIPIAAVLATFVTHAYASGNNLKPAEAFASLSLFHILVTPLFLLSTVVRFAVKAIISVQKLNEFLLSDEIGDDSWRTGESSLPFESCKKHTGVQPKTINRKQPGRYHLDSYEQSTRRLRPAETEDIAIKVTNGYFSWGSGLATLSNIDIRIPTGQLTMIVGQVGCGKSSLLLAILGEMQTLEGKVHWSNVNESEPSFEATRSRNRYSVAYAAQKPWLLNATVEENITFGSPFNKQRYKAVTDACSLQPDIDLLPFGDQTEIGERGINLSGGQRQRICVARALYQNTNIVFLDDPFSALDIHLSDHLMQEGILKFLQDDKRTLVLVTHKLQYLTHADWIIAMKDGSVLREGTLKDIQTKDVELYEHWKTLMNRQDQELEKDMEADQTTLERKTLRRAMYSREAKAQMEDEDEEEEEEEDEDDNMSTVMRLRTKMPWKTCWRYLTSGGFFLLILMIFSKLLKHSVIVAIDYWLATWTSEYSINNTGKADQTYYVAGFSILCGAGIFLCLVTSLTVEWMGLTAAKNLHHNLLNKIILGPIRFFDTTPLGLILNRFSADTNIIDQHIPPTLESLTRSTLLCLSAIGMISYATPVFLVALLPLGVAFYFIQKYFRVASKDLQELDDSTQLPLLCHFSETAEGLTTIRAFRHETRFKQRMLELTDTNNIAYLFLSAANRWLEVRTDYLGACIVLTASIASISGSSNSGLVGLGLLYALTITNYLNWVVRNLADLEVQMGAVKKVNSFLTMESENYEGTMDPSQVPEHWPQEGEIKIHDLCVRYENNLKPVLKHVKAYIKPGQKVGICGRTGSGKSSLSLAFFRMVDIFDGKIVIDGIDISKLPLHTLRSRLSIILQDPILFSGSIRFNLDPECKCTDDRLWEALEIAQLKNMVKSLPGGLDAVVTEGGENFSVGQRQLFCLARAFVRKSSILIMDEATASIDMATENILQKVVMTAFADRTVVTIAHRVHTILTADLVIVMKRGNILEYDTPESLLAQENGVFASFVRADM
T1 sequence (Q14654 whole entry partner): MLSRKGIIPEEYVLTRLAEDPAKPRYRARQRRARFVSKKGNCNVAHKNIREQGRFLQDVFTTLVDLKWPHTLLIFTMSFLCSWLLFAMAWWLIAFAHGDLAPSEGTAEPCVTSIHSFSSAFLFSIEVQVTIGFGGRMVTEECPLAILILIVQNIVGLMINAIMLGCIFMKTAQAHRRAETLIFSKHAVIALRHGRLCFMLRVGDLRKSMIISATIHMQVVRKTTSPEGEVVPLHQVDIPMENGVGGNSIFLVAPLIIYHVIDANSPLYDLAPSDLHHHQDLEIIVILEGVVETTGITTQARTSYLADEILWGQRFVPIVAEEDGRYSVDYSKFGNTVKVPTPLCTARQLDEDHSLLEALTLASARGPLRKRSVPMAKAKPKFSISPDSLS

Row | % Stimulation @ 30 μM [%] | SMILES
1 | 94 | CCc1cc(C#N)ccc1Nc1c(NC2CCCC23CCCO3)c(=O)c1=O (centres unmarked) [Compound 1, 3-ethyl-4-[[2-(1-oxaspiro[4.4]non-6-ylamino)-3,4-dioxo-1-cyclobutene-1-yl]amino]-benzonitrile]
2 | 49 | Cc1cc(Cl)cc(Cl)c1CNc1c(NC2CCCC23CCCO3)c(=O)c1=O (centres unmarked) [Compound 3, 3-[[(2,4-dichloro-6-methylphenyl)methyl]amino]-4-(1-oxaspiro[4.4]non-6-ylamino)-3-cyclobutene-1,2-dione]
